Data taken from article PMC9545004, “Transglutaminase 2 affinity and enzyme‐substrate intermediate stability as determining factors for T‐cell responses to gluten peptides in celiac disease” (European Journal of Immunology, 2022).
Where two headings read alike, the source gives them in different places. One block for each compound: values may come before it.

Legend:
[1] = system: TCR-transfectant cells specific for DQ2.5-glia-ω2; test: Inhibition by primary amines of activation of DQ2.5-glia-ω2-specific T cells by TG2-specific B cells, IL-2 ELISA; assay type: cell-based; conditions: for IC50: 5 µM N-ω-gliadin 34-mer, TG2, CaCl2, amine 0-1000 µM, IL-2 ELISA
Source text: (§1) Murine A20 B lymphoma cells engineered to express either the celiac patient‐derived TG2‐specific BCR 679‐14‐E06 or the non‐TG2‐specific BCR 693‐2‐F02 as human IgD are previously described. For B‐cell/T‐cell collaboration assays, we used A20 BCR transfectants also transduced to express HLA‐DQ2.5 [27]. Murine BW58α^–β^– cells were retrovirally transduced to express human CD4 as well as the celiac patient‐derived gluten‐specific TCR from a DQ2.5‐glia‐γ1‐reactive T‐cell clone (TCC 4.32) as previously described. The generation of TCR transfectants expressing DQ2.5‐glia‐α2‐reactive TCR (TCC 364.14) and DQ2.5‐glia‐ω2‐reactive TCR (clone 737.30) have been described previously.
The B‐cell/T‐cell collaboration assays were set up as previously described. To compare the uptake and presentation of different gluten peptides to T cells, A20 cells (5 mill/mL) expressing the TG2‐specific BCR (679‐14‐E06) and HLA DQ2.5 were incubated with recombinant TG2 (final 3 µg/mL) and varying amounts of N‐α‐gliadin 20‐mer, N‐ω‐gliadin 19‐mer, or N‐γ‐gliadin 21‐mer in RPMI supplemented with 2 mM CaCl2. After a 30 min incubation at 37°C the cells were washed with 1% FCS/RPMI and resuspended in 5% FCS/RPMI to give a final 1.5 million cells/mL (150 000/well) followed by 2 h incubation at 37°C. Next, TCR‐transfectant cells specific for either DQ2.5‐glia‐α2, DQ2.5‐glia‐ω2, or DQ2.5‐glia‐γ1 were added (25 000/well), followed by overnight incubation at 37°C. The next day, IL‐2 concentration was measured in the culture supernatant by ELISA as previously described. The responsiveness of different TCR transfectants was assessed in the same way, but without the 30 min incubation with TG2, and using the synthetic deamidated peptides (D‐α‐gliadin 20‐mer, D‐ω‐gliadin 17‐mer, and D‐γ‐gliadin 21‐mer). To assess how TG2 secondary substrate affects peptide uptake and presentation to T cells, TG2‐specific A20 cells expressing DQ2.5 were incubated with TG2, CaCl2, 5 µM N‐ω‐gliadin 34‐mer, or 5 µM N‐α‐gliadin 33‐mer in the presence of primary amines at increasing concentrations (0‐1000 µM), before the addition of TCR‐transfectant cells specific for the DQ2.5‐glia‐α2 or DQ2.5‐glia‐ω2 epitopes. The dose‐response curve fitting to find IC50 was done using the “[Inhibitor] vs. response” equation in GraphPad Prism 8.3.0. To examine whether primary amines directly affect the B cells, TG2‐specific A20 cell expressing DQ2.5 were incubated with primary amines for 30 min and washed, before addition of 2 µM D‐ω‐gliadin 34‐mer, followed by incubation with DQ2.5‐glia‐ω2 TCR transfectants.

[2] = system: TG2:gluten complexes uptake by TG2-specific B cells (A20, BCR 679-14-E06); test: Inhibition by primary amines of TG2:gluten complex uptake by TG2-specific B cells, flow cytometry; assay type: cell-based, Murine A20 B lymphoma; recombinant human TG2; conditions: for IC50: B-cell
Source text: as §1
B‐cell uptake of gluten peptides was measured essentially as previously described. The following 9‐mer peptides were compared: FITC‐α2, FITC‐ω2, FITC‐γ1, and FITC‐γ3. In brief, A20 cells (300 000/well) expressing TG2‐specific (679‐14‐E06) or non‐TG2 specific BCR (693‐2‐F02) were incubated with recombinant TG2 (final 3 µg/mL), 5 µM FITC peptide, and 2 mM CaCl2 in RPMI at a final volume of 50 µL. Following incubation at 37°C, the TG2 enzymatic activity was quenched by the addition of 100 µL 2 mM EDTA/RPMI at specific timepoints. Cells were washed, fixed in 2% methanol‐free formaldehyde (Invitrogen), resuspended in 2% fetal calf serum (FCS)/PBS, and analyzed by flow cytometry (Attune NxT Flow Cytometer, Thermo Scientific). For each peptide, a delta MFI was calculated by subtracting MFI from non‐TG2 specific A20 cell (unspecific binding) from MFI of TG2‐specific A20 cells. Delta MFI was normalized for each experiment by dividing by the highest delta value per experiment. To assess the contribution and uptake of isopeptide‐linked TG2:gluten complexes, TG2 (3 µg/mL) and FITC‐labelled peptides (5 µM) were preincubated in RPMI with 2 mM CaCl2 at 37°C for 30 min before addition of A20 cells followed by 30 min incubation at 37°C. To examine the effect of TG2 secondary substrates on peptide uptake, the primary amines spermine (Sigma–Aldrich) and biotinylated cadaverine (5‐biotinamido‐pentylamine; 5‐BP, Pierce) were added to the reaction mixture (0.1–1000 µM final concentration), followed by 10 min incubation at 37°C and flow cytometry analysis. The dose‐response curve fitting to find IC50 was done using the “[Inhibitor] vs. response” equation in GraphPad Prism 8.3.0. Of note, the presence of Lysine HCl in RPMI medium represents an experimental constant in our assays that is not accounted for when calculating the competitive effect of amine.

[3] = DQ2.5-glia-ω2, replicate Figure S5A
[4] = DQ2.5-glia-ω2, replicate Figure S5B
[5] = logIC50, DQ2.5-glia-ω2, Figure 5
[6] = logIC50, DQ2.5-glia-ω2, replicate Figure S5A
[7] = logIC50, DQ2.5-glia-ω2, replicate Figure S5B
[8] = 10 min, inhibition of FITC-α2 (5 µM) uptake, TG2 3 µg/mL, 2 mM CaCl2, RPMI, 37°C 10 min, Figure 4, read-out: IC50
[9] = 10 min, inhibition of FITC-α2 (5 µM) uptake, TG2 3 µg/mL, 2 mM CaCl2, RPMI, 37°C 10 min, mean, read-out: IC50
[10] = 10 min, inhibition of FITC-α2 (5 µM) uptake, TG2 3 µg/mL, 2 mM CaCl2, RPMI, 37°C 10 min, replicate Figure S4 A, read-out: IC50
[11] = 10 min, inhibition of FITC-α2 (5 µM) uptake, TG2 3 µg/mL, 2 mM CaCl2, RPMI, 37°C 10 min, replicate Figure S4 B, read-out: IC50
[12] = 10 min, inhibition of FITC-ω2 (5 µM) uptake, TG2 3 µg/mL, 2 mM CaCl2, RPMI, 37°C 10 min, Figure 4, read-out: IC50
[13] = 10 min, inhibition of FITC-ω2 (5 µM) uptake, TG2 3 µg/mL, 2 mM CaCl2, RPMI, 37°C 10 min, mean (spermine: Figure S4 B not included), read-out: IC50
[14] = 10 min, inhibition of FITC-ω2 (5 µM) uptake, TG2 3 µg/mL, 2 mM CaCl2, RPMI, 37°C 10 min, replicate Figure S4 A, read-out: IC50
[15] = FITC 9-mer native gluten peptides, average IC50 values, Table S1, read-out: IC50, inhibition of FITC-9-mer peptide uptake (average values)
[16] = inhibition of FITC-α2 uptake, Figure 4
[17] = inhibition of FITC-α2 uptake, mean
[18] = inhibition of FITC-α2 uptake, replicate Figure S4 B
[19] = inhibition of FITC-ω2 uptake, Figure 4
[20] = inhibition of FITC-ω2 uptake, mean
[21] = inhibition of FITC-ω2 uptake, replicate Figure S4 A
[22] = inhibition of FITC-ω2 uptake, replicate Figure S4 B
[23] = logIC50, inhibition of FITC-α2 uptake, Figure 4
[24] = logIC50, inhibition of FITC-α2 uptake, mean
[25] = logIC50, inhibition of FITC-α2 uptake, replicate Figure S4 A
[26] = logIC50, inhibition of FITC-α2 uptake, replicate Figure S4 B
[27] = logIC50, inhibition of FITC-γ1 uptake, Figure 4
[28] = logIC50, inhibition of FITC-γ1 uptake, mean
[29] = logIC50, inhibition of FITC-γ1 uptake, replicate Figure S4 C
[30] = logIC50, inhibition of FITC-ω2 uptake, Figure 4
[31] = logIC50, inhibition of FITC-ω2 uptake, mean
[32] = logIC50, inhibition of FITC-ω2 uptake, replicate Figure S4 A
[33] = logIC50, inhibition of FITC-ω2 uptake, replicate Figure S4 B

IC50 ([1]; DQ2.5-glia-ω2, Figure 5): 55.1 µM
IC50 ([1]; DQ2.5-glia-ω2, mean): 27.5 µM
IC50 [1, 3]: 18.4 µM
IC50 [1, 4]: 9.13 µM
IC50 [2, 8]: 29.3 µM
IC50 [2, 9]: 66.1 µM
IC50 [2, 10]: 47.6 µM
IC50 [2, 11]: 121 µM
IC50 ([2]; 10 min, inhibition of FITC-γ1 (5 µM) uptake, TG2 3 µg/mL, 2 mM CaCl2, RPMI, 37°C 10 min, Figure 4, read-out: IC50): 45.3 µM
IC50 ([2]; 10 min, inhibition of FITC-γ1 (5 µM) uptake, TG2 3 µg/mL, 2 mM CaCl2, RPMI, 37°C 10 min, mean, read-out: IC50): 31.9 µM
IC50 ([2]; 10 min, inhibition of FITC-γ1 (5 µM) uptake, TG2 3 µg/mL, 2 mM CaCl2, RPMI, 37°C 10 min, replicate Figure S4 C, read-out: IC50): 18.7 µM
IC50 [2, 12]: 14 µM
IC50 [2, 13]: 26.1 µM
IC50 [2, 14]: 38.2 µM
IC50 [2, 15]: 26 to 72 µM
Structure (SMILES): NCCCNCCCCNCCCN [spermine]
logIC50 ([1]; DQ2.5-glia-ω2, Figure 5): 1.74
logIC50 ([1]; DQ2.5-glia-ω2, mean): 1.32
logIC50 [1, 3]: 1.26
logIC50 [1, 4]: 0.960
log 95% CI lower limit [1, 5]: 1.50
log 95% CI upper limit [1, 5]: 1.99
log 95% CI lower limit ([1]; logIC50, DQ2.5-glia-ω2, mean): 1.04
log 95% CI upper limit ([1]; logIC50, DQ2.5-glia-ω2, mean): 1.58
log 95% CI lower limit [1, 6]: 1.03
log 95% CI upper limit [1, 6]: 1.50
log 95% CI lower limit [1, 7]: 0.610
log 95% CI upper limit [1, 7]: 1.26
inhibition of FITC-9-mer uptake, in words ([2]; TG2 3 µg/mL, FITC peptide 5 µM, 2 mM CaCl2, 37°C 10 min, Figure 4, Figure S4): effectively inhibited uptake
logIC50 [2, 16]: 1.47
logIC50 [2, 17]: 1.74
logIC50 ([2]; inhibition of FITC-α2 uptake, replicate Figure S4 A): 1.68
logIC50 [2, 18]: 2.08
logIC50 ([2]; inhibition of FITC-γ1 uptake, Figure 4): 1.66
logIC50 ([2]; inhibition of FITC-γ1 uptake, mean): 1.46
logIC50 ([2]; inhibition of FITC-γ1 uptake, replicate Figure S4 C): 1.27
logIC50 [2, 19]: 1.15
logIC50 [2, 20]: 1.36
logIC50 [2, 21]: 1.58
logIC50 [2, 22]: 16.4
log 95% CI lower limit [2, 23]: 0.911
log 95% CI upper limit [2, 23]: 2.19
log 95% CI lower limit [2, 24]: 1.31
log 95% CI upper limit [2, 24]: 2.23
log 95% CI lower limit [2, 25]: 1.49
log 95% CI upper limit [2, 25]: 1.864
log 95% CI lower limit [2, 26]: 1.53
log 95% CI upper limit [2, 26]: 2.63
log 95% CI lower limit [2, 27]: 1.20
log 95% CI upper limit [2, 27]: 2.08
log 95% CI lower limit [2, 28]: 1.02
log 95% CI upper limit [2, 28]: 2.0
log 95% CI lower limit [2, 29]: 0.84
log 95% CI upper limit [2, 29]: 1.92
log 95% CI lower limit [2, 30]: 0.93
log 95% CI upper limit [2, 30]: 1.39
log 95% CI lower limit [2, 31]: 1.16
log 95% CI upper limit [2, 31]: 1.59
log 95% CI lower limit [2, 32]: 1.38
log 95% CI upper limit [2, 32]: 1.79

IC50 ([1]; DQ2.5-glia-ω2, Figure 5): 60.7 µM
IC50 ([1]; DQ2.5-glia-ω2, mean): 27 µM
IC50 [1, 3]: 13.6 µM
IC50 [1, 4]: 6.79 µM
IC50 [2, 8]: 22.7 µM
IC50 [2, 9]: 42 µM
IC50 [2, 10]: 57.9 µM
IC50 [2, 11]: 45.4 µM
IC50 [2, 12]: 20.7 µM
IC50 [2, 13]: 72 µM
IC50 [2, 14]: 130 µM
IC50 ([2]; 10 min, inhibition of FITC-ω2 (5 µM) uptake, TG2 3 µg/mL, 2 mM CaCl2, RPMI, 37°C 10 min, replicate Figure S4 B (for spermine not included in the mean), read-out: IC50): 65.6 µM
IC50 [2, 15]: 26 to 72 µM
Structure (SMILES): NCCCCCNC(=O)CCCC[C@@H]1SC[C@@H]2NC(=O)N[C@@H]21 [5-BP, 5‐biotinamido‐pentylamine]
logIC50 ([1]; DQ2.5-glia-ω2, Figure 5): 1.78
logIC50 ([1]; DQ2.5-glia-ω2, mean): 1.25
logIC50 [1, 3]: 1.13
logIC50 [1, 4]: 0.832
log 95% CI lower limit [1, 5]: 1.52
log 95% CI upper limit [1, 5]: 2.04
log 95% CI lower limit ([1]; logIC50, DQ2.5-glia-ω2, mean): 1.23
log 95% CI upper limit ([1]; logIC50, DQ2.5-glia-ω2, mean): 1.57
log 95% CI lower limit [1, 6]: 0.940
log 95% CI upper limit [1, 6]: 1.32
log 95% CI upper limit [1, 7]: 1.36
logIC50 [2, 16]: 1.36
logIC50 [2, 17]: 1.59
logIC50 [2, 18]: 1.66
logIC50 [2, 19]: 1.32
logIC50 [2, 20]: 1.75
logIC50 [2, 21]: 2.11
logIC50 [2, 22]: 1.82
log 95% CI lower limit [2, 23]: 1.04
log 95% CI upper limit [2, 23]: 1.71
log 95% CI lower limit [2, 24]: 1.35
log 95% CI upper limit [2, 24]: 1.85
log 95% CI lower limit [2, 25]: 1.52
log 95% CI upper limit [2, 25]: 2.00
log 95% CI lower limit [2, 26]: 1.50
log 95% CI upper limit [2, 26]: 1.82
log 95% CI lower limit [2, 30]: 1.09
log 95% CI upper limit [2, 30]: 1.57
log 95% CI lower limit [2, 31]: 1.48
log 95% CI upper limit [2, 31]: 2.03
log 95% CI lower limit [2, 32]: 1.86
log 95% CI upper limit [2, 32]: 2.38
log 95% CI lower limit [2, 33]: 1.50
log 95% CI upper limit [2, 33]: 2.14
